Reference: US8465726B2, “Stilbene derivatives and their use for binding and imaging amyloid plaques” (The Trustees of the University of Pennsylvania, priority 2004, dated 2013)

Columns and labels:
[1] = Organ distribution in normal mice after iv injection; format: in vivo; conditions: ICR mice
Procedure: The organs of interest were removed and weighed, and the radioactivity was assayed for radioactivity content with an automatic gamma counter. The percentage dose per organ was calculated by a comparison of the tissue counts to suitably diluted aliquots of the injected material. Total activities of blood were calculated under the assumption that they were 7% of the total body weight. The % dose/g of samples was calculated by comparing the sample counts with the count of the diluted initial dose.

[2] = tested on: amyloid deposits / Aβ plaques in the brain; conditions: cited from earlier work

SMILES | Biodistribution, Blood ([1]; 2 min after iv injection) [% dose/g] | Biodistribution, Bone ([1]; 2 min after iv injection) [% dose/g] | Biodistribution, Brain ([1]; 2 min after iv injection) [% dose/g] | Biodistribution, Blood ([1]; 30 min after iv injection) [% dose/g] | Biodistribution, Bone ([1]; 30 min after iv injection) [% dose/g] | Biodistribution, Brain ([1]; 30 min after iv injection) [% dose/g] | Biodistribution, Blood ([1]; 1 hr after iv injection) [% dose/g] | Biodistribution, Bone ([1]; 1 hr after iv injection) [% dose/g] | Biodistribution, Brain ([1]; 1 hr after iv injection) [% dose/g] | Biodistribution, Blood ([1]; 2 hr after iv injection) [% dose/g] | Biodistribution, Bone ([1]; 2 hr after iv injection) [% dose/g] | Biodistribution, Brain ([1]; 2 hr after iv injection) [% dose/g] | retention in the cortex ([2]; patients with diagnosed mild AD) | accumulation in the frontal cortex ([2]; mild to moderate AD patients, not in age-matched control subjects) | relative residence time of the brain region of interest versus the pons ([2]; AD patients versus comparison subjects, PET)
CNc1ccc(C=Cc2ccc(OCCOCCF)cc2)cc1 [12a, [4-(2-{4-[2-(2-Fluoro-ethoxy)-ethoxy]-phenyl}-vinyl)-phenyl]-methyl-amine] | 2.64 ± 0.55 | 1.89 ± 0.25 | 8.14 ± 2.03 | 2.42 ± 0.27 | 1.40 ± 0.11 | 3.00 ± 0.16 | 2.04 ± 0.16 | 1.71 ± 0.23 | 2.60 ± 0.22 | 2.77 ± 0.63 | 2.88 ± 0.07 | 2.14 ± 0.06 | – | – | –
CNc1ccc(C=Cc2ccc(OCCOCCOCCOCCF)cc2)cc1 [12c, (4-{2-[4-(2-{2-[2-(2-Fluoro-ethoxy)-ethoxy]-ethoxy}-ethoxy)-phenyl]-vinyl}-phenyl)-methyl-amine] | 3.22 ± 0.20 | 2.31 ± 0.12 | 6.59 ± 0.19 | 1.88 ± 0.08 | 1.00 ± 0.02 | 1.27 ± 0.03 | 1.81 ± 0.48 | 0.98 ± 0.27 | 1.20 ± 0.10 | 1.60 ± 0.12 | 1.50 ± 0.05 | 1.21 ± 0.06 | – | – | –
CNc1ccc(C=Cc2ccc(OCCOCCOCCOCCOCCF)cc2)cc1 [12d, [4-(2-{4-[2-(2-{2-[2-(2-Fluoro-ethoxy)-ethoxy]-ethoxy}-ethoxy)-ethoxy]-phenyl}-vinyl)-phenyl]-methyl-amine] | 4.99 ± 0.38 | 2.24 ± 0.21 | 7.30 ± 1.05 | 4.66 ± 0.06 | 2.29 ± 0.21 | 2.43 ± 0.03 | 2.89 ± 0.11 | 1.66 ± 0.01 | 1.77 ± 0.11 | 2.59 ± 0.18 | 2.35 ± 0.27 | 1.62 ± 0.03 | – | – | –
[11CH3]Nc1ccc(-c2nc3ccc(O)cc3s2)cc1 [[^11C]6-OH-BTA-1] | – | – | – | – | – | – | – | – | – | – | – | – | marked retention | – | –
[11CH3]Nc1ccc(/C=C/c2ccc(O)cc2)cc1 [[^11C]SB-13] | – | – | – | – | – | – | – | – | – | – | – | – | – | high accumulation | –
CNc1ccc(C=Cc2ccc(OCCOCCOCC[18F])cc2)cc1 [[^18F]12b, [^18F]{4-[2-(4-{2-[2-(2-Fluoro-ethoxy)-ethoxy]-ethoxy}-phenyl)-vinyl]-phenyl}-methyl-amine] | – | – | – | – | – | – | – | – | – | – | 2.74 | – | – | – | –
CC(=C(C#N)C#N)c1ccc2cc(N(C)CCF)ccc2c1 [[^18F]FDDNP] | – | – | – | – | – | – | – | – | – | – | – | – | – | – | significantly higher in AD patients
